Like-named read-outs stand apart in the source and are kept apart here.
How the values were obtained:
P. falciparum Dd2-B2 = assay: 72-hour flow cytometry EC50 assay, Dd2-B2 parental line; format: cell-based, Plasmodium falciparum; details: read-out: EC50 Dd2-B2 parental line
Description: (§1) Stocks of SAL-0010003 (5-benzyl), SAL-0010355 (5-aryl), and SAL-0010419 (2-alkyl) were made at 10 and 1 mM in DMSO. Aliquots in use were stored at −20°C, and long-term storage was at −80°C. All in vitro studies were done such that the final DMSO concentration was <0.5%. P. falciparum ABS parasites were cultured at 3% hematocrit in human O+ RBCs in RPMI 1640 medium, supplemented with 25 mM Hepes, 50 mg L-hypoxanthine, 2 mM L-glutamine, 0.225% sodium bicarbonate, 0.5% (w/v) AlbuMAX II (Invitrogen) and gentamycin (10 μg/ml), in modular incubator chambers (Billups-Rothenberg) at 5% O2, 5% CO2, and 90% N2 at 37°C. Dd2-B2 (obtained from T. Wellems, National Institute of Allergy and Infectious Diseases, National Institutes of Health) is a genetically homogenous line that was cloned from Dd2 by limiting dilution. To define the EC50 and EC90 values of ABS parasites, Dd2-B2 ring-stage cultures at 0.2% parasitemia and 1% hematocrit were exposed for 72 hours to a range of 10 drug concentrations that were twofold serially diluted in duplicates along with drug-free controls. Parasite survival was assessed by flow cytometry on an iQue flow cytometer (Sartorius) using SYBR Green and MitoTracker Deep Red FM (Life Technologies) as nuclear stain and vital dyes, respectively. After determination of the EC50 and EC90 values for the three compounds with the P. falciparum Dd2-B2 clone, one single-step selection was set up using 2 × 10^5 parasites in each well of a 96-well plate at a starting concentration of 3× EC90. Parasites were cleared from the culture rapidly, and cultures were screened three times weekly by flow cytometry and counted as positive for recrudescence when the overall parasitemia reached 0.3% and the parasites were visible on a blood smear. DNA was extracted from recrudescent lines using a QIAGEN QIAamp Blood Mini Kit, and libraries were prepared with the Illumina DNA Prep kit for whole-genome sequencing on the Illumina MiSeq using a V3 2 × 300–base pair flow cell.

[1] = system: P. falciparum Dd2-B2 lines selected under drug pressure; assay: 72-hour flow cytometry EC50 assay, lines selected under drug pressure; format: cell-based, Plasmodium falciparum
Description: Three examples of an additional compound series developed independently [NPD-2958, NPD-3518 ([31]), and NPD-3738; fig.
as §1

[2] = system: P. falciparum stage IV/V gametocytes; assay: LDH-based gametocyte viability assay; format: cell-based, Plasmodium falciparum; details: stage IV to V gametocytes
Description: The pLDH assay was performed on late (>95% stage IV/V) gametocytes. Compound dilutions were placed in triplicate in 96-well plates in a final volume of 100 μl per well. DHA and MMV048 were used as positive drug controls. The gametocyte cultures (100 μl per well) were added to the 96-well plates to achieve a final gametocytemia and hematocrit of 2 and 1%, respectively, in a total incubation volume of 200 μl. Plates were incubated at 37°C for 72 hours, followed by the replacement of spent medium with drug-free culture medium (75% medium change) ([54], [55]). Plates were then incubated for a further 72 hours before assessing viability by measuring pLDH activity. Gametocyte viability was determined spectrophotometrically by measuring the activity of pLDH, according to a modified version of a published protocol ([56]). Briefly, 100 μl of Malstat reagent [0.21% (v/v) Triton X-100, 222 mM L-(+)-lactic acid, 54.5 mM tris, 0.166 mM APAD (Sigma-Aldrich, A5251), adjusted to pH 9 with 1 M NaOH] was transferred into a clean 96-well plate. A fixed volume of 20 μl of parasite suspension per well was added to the Malstat plate, followed by the addition of 25 μl of PES/NBT (0.239 mM phenazine ethosulfate and 1.96 mM nitro blue tetrazolium chloride). Absorbance was measured with a Multiskan Ascent 354 multiplate scanner (Thermo LabSystems, Finland) at 620 nm.

[3] = system: P. falciparum stage V gametocytes (male gamete formation); assay: Exflagellation (male gamete formation) inhibition assay; format: cell-based, Plasmodium falciparum; details: 2 μM, 48 hours
Description: The exflagellation inhibition assay was performed by capturing movement of exflagellation centers over time by video microscopy [adapted from a reported protocol ([52])]. For this carry-over format, mature stage V gametocytes were treated with 2 μM of each compound for 48 hours before induction of exflagellation in the presence of compound. To evaluate compound dose response, gametocytes were treated similarly at a set of concentrations representing a fourfold serial dilution. Mature gametocyte cultures (>95% stage V; 500 μl) were centrifuged at 3500 rpm for 30 s, and the pellet was resuspended in 30 μl of ookinete medium [RPMI 1640 medium containing L-glutamine (Sigma-Aldrich, R6504), gentamycin (0.024 mg/ml; HyClone, SV30080.01), 202 μM hypoxanthine (Sigma-Aldrich, H9636), 25 mM Hepes (Sigma-Aldrich, H4034), 0.2% glucose (Sigma-Aldrich, G6152), and 0.5% (w/v) AlbuMAX II (Invitrogen, Paisley, UK), supplemented with 100 μM XA and 20% human serum]. The activated culture (10 μl) was introduced into a Neubauer chamber and placed on the microscope platform to settle homogenously. Time was noted as time zero (T0), and the chamber was incubated at room temperature. Movement was recorded by video microscopy using a Carl Zeiss NT 6V/10W Stab microscope, fitted with a MicroCapture camera at 10× magnification, and then quantified by a semiautomated method, a modification of the method described previously ([53]). A series of 15 videos of 8 to 10 s each were captured at random locations between 15 and 22.5 min after incubation. Each video was analyzed using Icy bioimage analysis software to quantify the number of exflagellating centers. Compound IC50 values were determined with nonlinear curve fitting (GraphPad Prism 6), normalized to maximum and minimum inhibition.

[4] = system: P. falciparum stage V gametocytes (female gamete formation); assay: Female gamete formation inhibition assay; format: cell-based, Plasmodium falciparum; details: 2 μM, 48 hours
Description: Mature gametocytes (>95% stage V) were treated with compounds (2 μM) for 48 hours before stimulating female gamete formation. To evaluate compound dose response, gametocytes were treated similarly at set concentrations representing a fourfold serial dilution. Female gamete activation was induced by both a temperature drop and the addition of 100 μM XA. Monoclonal anti-Pfs25 antibody (BEI Resources, catalog number MRA-28; 1:1000 dilution) conjugated to fluorescein isothiocyanate was used to detect female gametes. Image acquisition was performed using a Zeiss Axio Lab.A1 epifluorescence microscope with a 100/1.4 numerical aperture oil immersion objective and a Zeiss Axiocam 202 mono digital camera. Using a 100× objective, 30 images were taken per sample and analyzed manually. The number, size, roundness, and intensity of fluorescence of activated female gametocytes were evaluated. Compound IC50 values were determined with nonlinear curve fitting (GraphPad Prism 6), normalized to maximum and minimum inhibition.

[5] = system: P. falciparum (clone 3D7); assay: Parasite reduction ratio (PRR) assay; format: cell-based, Plasmodium falciparum; details: for Lag phase / Log PRR / PCT99.9% (hours taken to kill 99.9% of the parasites): 10× EC50, 3D7
Description: The in vitro killing profile of compounds was determined by monitoring the ability of parasites to recover following treatment with a compound of interest using a previously reported approach ([50]), which allowed calculation of the PRR ([51]). […] To quantify the number of viable parasites following treatment, four independent sets of threefold serial dilutions were performed on each sample, which were assayed for the presence or absence of parasites after 28 days using the LDH assay, and the number of viable parasites was determined by the number of wells showing growth. PRR and PCT99.9% were calculated as previously reported ([50]).

[6] = system: P. falciparum clinical isolates from Porto Velho, Brazil; assay: Ex vivo schizont maturation assay, Brazilian clinical isolates; format: cell-based, Plasmodium falciparum; details: Plasmodium falciparum
Description: Only monoinfected patients with P. falciparum with parasitemia between 2000 and 80,000 parasites/μl and with at least 70% of ring-stage parasites were recruited. Patients who had used an antimalarial in the previous month and/or presented with symptoms of severe malaria were excluded from the study. The study cohort comprised 24 patients living in this highly endemic area. A peripheral venous blood sample (5 ml) was collected from each individual by venipuncture in heparin-containing tubes and immediately used in the ex vivo drug susceptibility assay using preprepared plates containing diluted antimalarial compounds. […] Last, 20 μl of each dilution was transferred into the ex vivo assay plate and diluted 10-fold into the final assay medium containing parasites. For the infected blood preparation, 5 ml of whole blood was centrifuged at 800g for 10 min, and the plasma and buffy coat were removed. […] Control assays on a 3D7 laboratory isolate were performed with medium supplemented with human serum (20%). The iRBC (180 μl per well) were distributed in the predosed drug plate. […] Control wells containing drug-free iRBCs were cultured with complete medium. The parasite-drug incubation was terminated when 40% of the ring stages reached the schizont stage (at least three distinct nuclei per parasite) in the drug-free control wells. Thick blood films were then made from each well, dried, stained with 5% Giemsa solution for 30 min, and examined microscopically. The number of schizonts per 200 asexual-stage parasites was determined for each drug concentration and then normalized by comparing with the schizont number in the drug-free control wells [considered as 100% ([64])]. The half-maximal drug inhibitory response (EC50) was estimated by curve fitting using software from the OriginLab Corporation, Northampton, MA, USA and comparing with parasite growth in the drug-free controls.

HepG2 cells = assay: HepG2 cytotoxicity; format: cell-based
Text: Table 1. Key activity data for the three main chemical subseries against ABS parasites, parasite fractions, and HepG2 cells. ND, not determined; ×/÷ is the geometric mean with geometric SD. | column: HepG2 EC50 (nM) (selectivity index)

Compound: CC(C)c1n[nH]c2c(=O)[nH]c(C3CCCCC3)nc12 [NPD-3518]
- EC50 (P. falciparum Dd2-B2): 203 nM
- EC50 ([1]; read-out: EC50, line selected with the same NPD compound, Well 1): 2630 nM
- EC50 ([1]; read-out: EC50, line selected with the same NPD compound, Well 2): 2290 nM
- EC50 ([1]; read-out: EC50, line selected with the same NPD compound, Well 3): 2530 nM
- EC50 ([1]; read-out: EC50, line selected with the same NPD compound, Well 4): 2510 nM
- Mean fold change in EC50 ([1]; selected lines vs Dd2-B2 parental line, ±SD): 12.2 ± 0.7 fold
- EC50 shift, line selected with the same NPD compound, Well 1 ([1]; vs Dd2-B2): 12.9 fold
- EC50 shift, line selected with the same NPD compound, Well 2 ([1]; vs Dd2-B2): 11.2 fold
- EC50 shift, line selected with the same NPD compound, Well 3 ([1]; vs Dd2-B2): 12.4 fold
- EC50 shift, line selected with the same NPD compound, Well 4 ([1]; vs Dd2-B2): 12.4 fold

Compound: CC(C)COc1ccc(S(=O)(=O)N(C)C)cc1-c1nc2c(C3CCC3)n[nH]c2c(=O)[nH]1 [SAL-0010283]
- % inhibition gametocyte viability at 15 μM [2]: 100 ± 0%
- % inhibition of exflagellation at 2 μM [3]: 72.1 ± 26.0%
- % inhibition of female gamete formation at 2 μM [4]: 44.8 ± 2.5%

Compound: C[C@H]1[C@H](OC(=O)CCC(=O)O)O[C@@H]2O[C@@]3(C)CC[C@H]4[C@H](C)CC[C@@H]1[C@@]24OO3 [Artesunate, reference compound]
- Lag phase [5]: 0 h
- Log PRR [5]: >8
- PCT99.9% (hours taken to kill 99.9% of the parasites) [5]: <24 h
- EC50 ([6]; read-out: EC50 range, clinical isolates): 0.1 to 9 nM
- EC50 ([6]; read-out: Median EC50, clinical isolates): 0.6 nM

Compound: CCc1c2nc(-c3cc(C(=O)NC)cnc3OCC(C)C)[nH]c(=O)c2nn1CCOC [SAL-0010031]
- EC50 (HepG2 cells): > 25000 nM
- Lag phase [5]: 0 h
- Log PRR [5]: 2.78
- PCT99.9% (hours taken to kill 99.9% of the parasites) [5]: 51.2 h
- Slope ([5]; 10× EC50, 3D7 killing profile): −0.0579 ± 0.0058
- Killing profile ([5]; 10× EC50, faster than pyrimethamine, slower than chloroquine): fast/moderate killing profile

Compound: CC(C)COc1ccc(S(=O)(=O)N(C)C)cc1-c1nc2c(C(C)(C)C)n[nH]c2c(=O)[nH]1 [SAL-0010284]
- % inhibition gametocyte viability at 15 μM [2]: 100 ± 0%
- % inhibition of exflagellation at 2 μM [3]: 60.5 ± 18.0%
- % inhibition of female gamete formation at 2 μM [4]: 58.6 ± 2.1%

Compound: CC(C)c1n[nH]c2c(=O)[nH]c(C3CCOc4ccc(F)cc43)nc12 (stereo not drawn) [SAL-0010007]
- % inhibition gametocyte viability at 15 μM [2]: 100 ± 0%
- % inhibition of exflagellation at 2 μM [3]: 100 ± 0%
- % inhibition of female gamete formation at 2 μM [4]: 50.6 ± 1.9%
